Tests used:
Assay type in all cases: in vivo
[1] = test system: spontaneously hypertensive rats (SHR); assay: Activity for inhibiting cardiac hypertrophy, oral administration to SHR (Experiment 1); conditions: 5 mg/kg/day for 10 weeks
Experimental: The test compound: (4S)-1-methyl-3-[(2S)-2-[N-((1S)-1-ethoxycarbonyl-3-phenylpropyl)amino]propionyl]-2-oxo-imidazolidine-4-carboxylic acid hydrochloride was dissolved in distilled pure water and orally administered to spontaneously hypertensive rats (SHR) (4 weeks old age at the beginning of experiment, groups of 6 rats) at a dose of 5 mg/kg/day for 10 weeks.
Twenty-four hours after the final dosing, the SHR was killed by bleeding under ether anesthesia. The weight of heart was measured and the weight of heart per 100 g of body weight (relative heart weight) was calculated. After that, the heart was used for the measurement of cross sectional area of the heart.
Method for measurement of cross sectional area of heart is as follows:
(i) After weighing the excised heart, the excised heart was immersed in 10% neutral buffered formalin solution for about one week to fix said heart. The fixed heart was cut at a definitive region crossing the left and right ventricles to obtain a sample (thickness: about 2 mm). The sample was again immersed in a 10% neutral buffered formalin solution overnight, treated with paraffin in a usual manner (Note 1) and then stained with hematoxyin eosine (HE).
(ii) The microscopic image of the stained sample was examined by an image analyzer (Note 2) to give the ratio of the area of stained region to the area of unstained region (the latter area being the gap produced in preparing the sample).
(iii) The real area of the sample was obtained by an image analyzer and then multiplied by the ratio obtained in the above (ii) to give the cross sectional area of the heart.
[Note 1]: It is disclosed in "Byori Gijutsu Mannual" (Mannual for Pathorogical Technology) 3, Technology for Histopathorogical Preparation, ed. by Nippon Byori Gakkai, issued on Mar. 30, 1981 by Ishiyaku Shuppan K.K.
[Note 2]: Nikon three tube color television camera and Nikon Ruzex II, manufactured by Nippon Kogaku K.K.
The inhibitory ratio was calculated by the following equation: [formula]

rats = assay: Oral toxicity in rats; conditions: 5 g/kg, observed for 5 days
Source text: Moreover, the compounds (I) of this invention have low toxicity.

[2] = test system: spontaneously hypertensive rats (SHR); assay: Activity for inhibiting cardiac hypertrophy, intraperitoneal administration to SHR (Experiment 2); conditions: 0.5 mg/kg/day for 10 weeks
Experimental: The test compound: (4S)-1-methyl-3-[(2S)-2-[N-((1S)-1-carboxy-3-phenylpropyl)amino]propionyl]-2-oxo-imidazolidine-4-carboxylic acid hydrochloride was dissolved in distilled pure water and intraperitoneally administered to spontaneously hypertensive rats (SHR) (4 weeks old age at the beginning of experiment, groups of 9 rats) at a dose of 0.5 mg/kg/day for 10 weeks.
Twenty-four hours after the final dosing, the SHR was killed by bleeding under ether anesthesia. The weight of heart was measured and the weight of heart per 100 g of body weight (relative heart weight) was calculated.

[3] = SHR, versus non-administ. group

Structure (SMILES): CCOC(=O)[C@H](CCc1ccccc1)N[C@@H](C)C(=O)N1C(=O)N(C)C[C@H]1C(=O)O [(4S)-1-methyl-3-[(2S)-2-[N-((1S)-1-ethoxycarbonyl-3-phenylpropyl)amino]propionyl]-2-oxo-imidazolidine-4-carboxylic acid]
- Inhibition of increase of heart weight (in words) ([1]; spontaneously hypertensive rats): significantly inhibited increase of heart weight
- Mortality (rats): no rats was died

Structure (SMILES): C[C@H](N[C@@H](CCc1ccccc1)C(=O)O)C(=O)N1C(=O)N(C)C[C@H]1C(=O)O.Cl [(4S)-1-methyl-3-[(2S)-2-[N-((1S)-1-carboxy-3-phenylpropyl)amino]propionyl]-2-oxo-imidazolidine-4-carboxylic acid hydrochloride]
- Inhibition of cardiac hypertrophy (in words) [2]: clear inhibition of cardiac hypertrophy
- Relative heart weight (weight of heart per 100 g of body weight) ([2]; groups of 9, non-administ. group 0.36 ± 0.013, ** significant at 0.1% level): 0.33 ± 0.012 g
- Inhibitory ratio, relative heart weight ([2]; versus non-administ. group): 8%

Structure (SMILES): CCOC(=O)[C@H](CCc1ccccc1)N[C@@H](C)C(=O)N1C(=O)N(C)C[C@H]1C(=O)O.Cl [(4S)-1-methyl-3-[(2S)-2-[N-((1S)-1-ethoxycarbonyl-3-phenylpropyl)amino]propionyl]-2-oxo-imidazolidine-4-carboxylic acid hydrochloride]
- Inhibition of cardiac hypertrophy (in words) ([1]; SHR): clear inhibition of cardiac hypertrophy
- Relative heart weight (weight of heart per 100 g of body weight) ([1]; SHR, groups of 6, non-administ. group 0.399 ± 0.01, * significant at 1% level): 0.34 ± 0.01 g
- Sectional area of heart ([1]; SHR, groups of 6, non-administ. group 66.8 ± 4.0, * significant at 1% level): 57.9 ± 2.9 mm^2
- Inhibitory ratio, relative heart weight [1, 3]: 13%
- Inhibitory ratio, sectional area of heart [1, 3]: 13%

Structure (SMILES): C[C@H](N[C@@H](CCc1ccccc1)C(=O)O)C(=O)N1C(=O)N(C)C[C@H]1C(=O)O [(4S)-1-methyl-3-[(2S)-2-[N-((1S)-1-carboxy-3-phenylpropyl)amino]propionyl]-2-oxo-imidazolidine-4-carboxylic acid]
- Mortality (rats): no rats was died

— patent US4888339A, “Agent for prophylaxis and treatment of cardiac hypertrophy” (Tanabe Seiyaku Co., Ltd., priority 1986, dated 1989)
